The text below walks through data of US7452965B2, “Colon tumor specific binding peptides” (University of Utah Research Foundation, priority 2002, dated 2008).

Read-outs that look alike come from different tables or passages of the source. Bridge positions count the residues as written; N and C are the ends. Square brackets hold non-standard residues; d marks the D form. Ends that are not written are not given here. Peptide text beside a SMILES is read from it.

Data set [1] has as its system HT29 cells. As to conditions: for shift of EC50 of competition relative to RPM peptide: alanine mutants vs RPM peptide; for ability of peptide to compete RPM (CPIEDRPMC) phage binding to HT29 cells: peptide 0-1000 μM; for ability of peptide to compete RPM (CPIEDRPMC) phage binding to HT29 cells / level of RPM associated phage binding to HT29 cells in presence of competitor: 4° C.; for level of RPM associated phage binding to HT29 cells in presence of competitor: percentage of phage bound in absence of competitor. On the procedure:
Phage binding assay. HT29 cells were incubated with peptide in binding buffer at concentrations of 0, 0.1, 1, 10, 100, or 1000 μM for 30 minutes at 4° C. After 30 minutes of incubation, 10^10 pfu of phage were added to the cells and incubated at 4° C. for an additional 45 minutes. Following incubation, cells were washed 6× with wash buffer and the phage remaining bound were eluted with glycine. The number of phage bound to the cells was quantified with real time PCR.
To determine whether […] (SEQ ID NO: 134) displaying phage bind to HT29 cells specifically, a competition assay was performed using phage and synthetic peptides, peptides corresponding to the specific sequence, […] (SEQ ID NO: 134), and the non-specific sequence, […] (SEQ ID NO: 135), were synthesized by standard methods and oxidized to form a disulfide bond. Reaction of the peptides before and after oxidation with ElIman's reagent was performed to verify presence of the disulfide bond. […] In FIG. 2A, HT29 cells were incubated with increasing log concentrations of […] (SEQ ID NO: 134) peptide and with a constant number of either specific or non-specific phage. The number of phage binding to the HT29 cells was quantified and the percentage binding calculated based on the number of phage that bind in the absence of competitor. The sequence […] The reciprocal experiment was also done with HT29 cells incubated with increasing log concentrations of specific or non-specific peptide and a constant concentration of phage displaying the peptide […] (SEQ ID NO: 134).
The phage selection procedure produced naturally occurring substitution mutants so the phage and the peptide could be used to determine a functional consensus sequence for the family. HT29 cells were incubated with increasing log concentrations of […] (SEQ ID NO: 134) peptide and a constant number of phage displaying one of the sequences were selected.
To examine the importance of each residue within the RPM sequence for binding to HT29 cells, peptides were synthesized having alanine mutations in either the arginine, proline, or methionine residue and used in phage competition assay as described above.

Data set [2] deals with HT29 cells. The experiment in a line: RPM-FITC immunofluorescence staining of cultured cells (confocal microscopy). It is filed as cell-based. On the procedure:
Cell Culture: HT29, HCT116, or a 50% mixture of HT29 and HCT116 cells were plated on glass slides (Nalge). Wells were incubated with 10 μM of RPM-FITC peptide for 45 minutes at 4° C. or 37° C. After washing with wash buffer, cells were blocked with 1% NGS, 0.1% BSA, 0.1% Triton-X100 in PBS. Following the blocking step, wells were incubated with the polyclonal p53 antibody, D10, (Santa Cruz) for 1 hour at room temperature. The wells were washed and incubated with the secondary antibodies GαFITC Alexa 488 (Molecular Probes) and GαMouse Alexa 647 (Molecular Probes) and the nuclear stain Topro-3 (Molecular Probes). Wells were washed and mounted using Pro-Long Anti-fade (Molecular Probes). Slides were analyzed by confocal microscopy.
The peptide then was tested to determine whether it was able to differentiate HT29 from HCT116 cells. In order to distinguish HT29 from HCT116 cells in our immunohistochemical assays, staining was carried out in the presence of the transcription factor, p53. Staining for the protein p53 is a way to visually discriminate HT29 from HCT116 cells, since p53 is mutated and accumulates in HT29 cells but is wild type in HCT116 cells and thus, is rapidly degraded. […] To test the ability of the fluorescein conjugated peptide (RPM-FITC) to preferentially bind HT29 cells, HT29 and HCT116 cells were stained with RPM-FITC. […] When a mixture of HT29 and HCT116 cells was incubated with RPM-FITC and concurrently analyzed for the presence of p53, cells with the highest level of p53 protein also bound RPM-FITC (FIG. 5A).
The ability of a molecule to translocate across the cell membrane is important for drug delivery. HT29 cells were incubated for 1 hour at either 4° C. or 37° C. in the presence of 100 uM RPM-FITC. After incubation, cells were washed, fixed with 2% paraformaldehyde, then incubated with an anti-FITC secondary antibody to amplify the fluorescence signal.

In the next data set the test system is human colon tumor. The experiment in a line: Peptide-binding assay on frozen tissue sections. As to the method: (§1) A biopsy of sporadic colon adenocarcinoma, liver and lung sarcoma, and grossly uninvolved colon, liver, lung, and stomach were frozen in optimum cutting temperature (OCT) and […] cryostat sections placed on glass slides. Sections were stained with H&E and untreated adjacent sections were incubated with RPM-FITC. After incubating with RPM-FITC in binding buffer for 45 minutes at 4° C., slides were washed and mounted using Pro-Long Anti-Fade (Molecular Probes). Nuclei were visualized by a quick incubation with Topro-3 (Molecular Probes) present in the last wash. Samples were analyzed by confocal microscopy.

The subject of data set [3] is lung and liver cancer, grossly uninvolved lung, liver, and stomach. As to the kind of experiment: Peptide-binding assay on frozen tissue sections. Conditions: cryostat sections. Also noted: species or system human. On the procedure: as §1
To determine whether RPM-FITC was able to bind cancers originated from tissues other than colon or to other normal tissues, a peptide-binding assay was performed on cryostat sections of lung and liver cancer, and grossly uninvolved lung, liver, and stomach. As a positive control, a section of colon tumor was stained in parallel with the other sections. […] Binding to HT29 Cells is Dependent on the Amino Acids, RPMC-C (SEQ ID NO: 136).

The test system of another data set is HCT116 cells. As to the kind of experiment: MTT cell viability after RPM-KLAK or KLAK. It is filed as cell-based. Conditions: 72 hours at 37° C. On the procedure: (§2) RPM-KLAK (SEQ ID NO: 132) and KLAK (SEQ ID NO: 133) on HT29 and HCT116 cells. HT29 and HCT116 cells were incubated with increasing log concentrations of RPM-KLAK (SEQ ID NO: 132) or KLAK (SEQ ID NO: 133) for 72 hours at 37° C. After incubation, MTT was added to a final concentration of […] and incubated at 37° C. for 1 hour. The media/MTT was removed carefully and the cells dissolved with 0.1N HCl in isopropanol. Absorbance was read on a plate reader (Cytofluor II, Perceptive Biosystems) at 570 nm.
(§3) Since RPM-FITC is internalized at 37° C., RPM may be used to deliver a toxin to HT29 cells. […] Cells that were incubated with (KLAK)2 (SEQ ID NO: 138) alone or with free peptide were refractory to death induced by the toxin. However, when a peptide that was specific and also internalized by cells was conjugated to (KLAK)2 (SEQ ID NO: 138), the cells were killed. RPM was coupled to (KLAK)2 (SEQ ID NO: 138) and incubated with HT29 and HCT116 cells with either (KLAK)2 (SEQ ID NO: 138) alone as a negative control or RPM-(KLAK)2 (SEQ ID NO: 5). Cells were treated for 72 hours at 37° C. At the end of the incubation, cell viability was measured by MTT assay. […] This was indeed observed for HCT116 incubation with RPM (KLALK)2 (SEQ ID NO: 5) (FIG. 6B).

Data set [4] has as its system HT29 cells. The experiment in a line: MTT cell viability after RPM-KLAK or KLAK. Format: cell-based. Conditions: 72 hours at 37° C. As to the method: as §2, §3
For data set [5], the system named is HT29 cells. The experiment in a line: Protease assay: RPM phage binding to protease-treated cells. As to conditions: 37° C. As to the method: HT29 cells were incubated at 37° C. with either active or boiled Collagenase diluted 1:20 for 10 minutes, Trypsin-EDTA 0.25% (Gibco) for 5 minutes or Proteinase K (Gibco) diluted 1:600 for 1 minute. After incubation, cells were then incubated with RPM bearing phage as described above. The number of phage remaining bound was quantified by real time PCR.
(§4) In order to further this observation, HT29 cells were treated with active or boiled proteases to determine the effect of treatment on the ability of an RPM displaying phage to bind. HT29 cells were treated with active or boiled collagenase for 15 minutes, trypsin for 5 minutes, or proteinase K for 0.5 minutes at 37° C. After protease treatment, cells were washed, then an equal number of phage were added and allowed to bind. […] The decrease in phage binding to the HT29 cells was due to the protease activity since boiling the proteases abolished the effect with phage binding returning to levels of that observed for PBS treated cells (FIG. 6B). […] After treating HT29 cells with proteases as described above, MTT was added to the cells and incubated for 45 minutes at 37° C. After incubation, the cells were solubilized with 0.1N HCl in isopropanol and the absorbance due to MTT incorporation was determined.

In data set [6] the test system is HT29 cells. As to the kind of experiment: MTT viability of protease-treated cells. It is filed as cell-based. Conditions: MTT 45 minutes at 37° C. after protease treatment. On the procedure: as §4

`CC[C@H](C)[C@@H]1NC(=O)[C@@H]2CCCN2C(=O)[C@@H](N)CSSC[C@@H](C(=O)O)NC(=O)[C@H](CCSC)NC(=O)[C@@H]2CCCN2C(=O)[C@H](C)NC(=O)[C@H](CC(=O)O)NC(=O)[C@H](CCC(=O)O)NC1=O` [APM] (H-CPIEDAPMC-OH; disulfide 1-9 (inferred); N-terminus and C-terminus assumed): in the data set with HT29 cells [1], the response was half-maximal at 690 µM (EC50) and the “shift of EC50 of competition relative to RPM peptide” value is around 100 fold.
In the case of `CC[C@H](C)[C@@H]1NC(=O)[C@@H]2CCCN2C(=O)[C@@H](N)CSSC[C@@H](C(=O)O)NC(=O)[C@H](CCSC)NC(=O)[C@@H]2CCCN2C(=O)[C@H](CCCNC(=N)N)NC(=O)[C@H](CC(=O)O)NC(=O)[C@H](CCC(=O)O)NC1=O` [CPIEDRPMC, cys-pro-ile-glu-asp-arg-pro-met-cys] (H-CPIEDRPMC-OH; disulfide 1-9), in the data set on HT29 cells [1], the “ability of peptide to compete RPM (CPIEDRPMC) phage binding to HT29 cells” value (“ability of peptide to compete RPM” below) is reported as “able to compete” and the “level of RPM associated phage binding to HT29 cells in presence of competitor” value is “less than 4%”. Besides, the “ability of peptide to compete RPM” value with HT29 cells [1] (listed as RPM peptide) is given as “successfully abolished binding”. Also, the EC50 in the data set on HT29 cells [1] (read-out: EC50 of competition, competition of RPM displaying phage on HT29 cells) is 5 µM. Besides, the “effect of unlabeled competitor on RPM-FITC staining of HT29 cells” value in the data set on HT29 cells [2] is given as “able to abolish”. For the same compound, the “effect of unlabeled competitor on RPM-FITC binding to colon tumor” value in the data set with human colon tumor is “abrogate binding”. In data set [3], the “labeling of lung and liver cancer and uninvolved lung, liver, stomach” value is “failed to stain”.
On to `CC[C@H](C)[C@@H]1NC(=O)[C@@H]2CCCN2C(=O)[C@@H](N)CSSC[C@@H](C(=O)O)NC(=O)[C@H](C)NC(=O)[C@@H]2CCCN2C(=O)[C@H](CCCNC(=N)N)NC(=O)[C@H](CC(=O)O)NC(=O)[C@H](CCC(=O)O)NC1=O` [RPA] (H-CPIEDRPAC-OH; disulfide 1-9 (inferred); N-terminus and C-terminus assumed), for which, in the data set on HT29 cells [1], a half-maximal effect (EC50) was put at 545 µM and the “shift of EC50 of competition relative to RPM peptide” value is given as around 100 fold.
Turning to “(KLAK)2: antimicrobial toxin that selectively disrupts the mitochondrial membrane of eukaryotic cells, SEQ ID NO: 138 / 133 (KLAKKLAK) [reference compound]”, in the data set on HCT116 cells, the “effect on HCT116 cell viability” value is “did not effect the viability”. Also, the “effect on HT29 cell viability” value in the data set on HT29 cells [4] was “did not effect the viability”.
Regarding “A11 D RPM: RPM peptide consisting of all D amino acids ([dC][dP][dI][dE][dD][dR][dP][dM][dC]; cysteine pairing not given here)”, the “ability of peptide to compete RPM” value in the data set on HT29 cells [1] is listed as “not able to compete”; with HT29 cells [1] (listed as peptide synthesized with all D amino acids) it was “failed to compete”.
Turning to “CKHLGPQLC (disulfide 1-9 (inferred)) [reference compound]”, the “ability of peptide to compete RPM” value in the data set with HT29 cells [1] is listed as “not able to compete”; in the data set on HT29 cells [1] (listed as unrelated peptide), “failed to block”. The “level of RPM associated phage binding to HT29 cells in presence of competitor” value in the data set with HT29 cells [1] is 100%. Also, the “effect of unlabeled competitor on RPM-FITC staining of HT29 cells” value with HT29 cells [2] is listed as “unaffected”.
On to “RPM middle: peptide bearing the RPM motif in the middle of the peptide, CPIRPMEDC (SEQ ID NO: 137)”, for which the “fold less potent than RPM in competing with phage for HT29 cell binding” value in the data set on HT29 cells [1] (compared to RPM) is reported as “over 100 fold”. Moreover, the “ability of peptide to compete RPM” value with HT29 cells [1] was “failed to compete”.
Regarding collagenase, in the data set with HT29 cells [5], the “decrease of RPM phage binding to active protease treated HT29 cells” value was 85%. The “average absorbance (MTT incorporation) of treated cells” value in the data set on HT29 cells [6] was 0.189.
For trypsin, the “decrease of RPM phage binding to active protease treated HT29 cells” value with HT29 cells [5] stood at 90%. In addition, the “average absorbance (MTT incorporation) of treated cells” value in the data set on HT29 cells [6] amounted to 0.175.

The EC50 is the midpoint of the concentration-response curve.
